Laboratory results from ChEMBL document CHEMBL1201862, “PubChem BioAssay data set” (2004).
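Exposure lasted 48 hours, with cells grown in 96-well plates and compounds tested at five concentrations. GI50: concentration for 50% inhibition of growth.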 Activity calls are given as the source filed them. Cut-off read from the data, not from the text of the source: active = GI50 up to about 1.1 µM and inactive = higher.

Columns and labels:
Assay in all cases: DTP human tumour cell line panel, 48 h
A549 = system: A549
UACC-62 = system: UACC-62
BT-549 = system: BT-549
SNB-19 = system: SNB-19
MDA-MB-231 = system: MDA-MB-231
NCI-H460 = system: NCI-H460
UACC-257 = system: UACC-257
HCT-15 = system: HCT-15
IGROV-1 = system: IGROV-1
DU-145 = system: DU-145
SNB-75 = system: SNB-75
OVCAR-5 = system: OVCAR-5
SW-620 = system: SW-620
SF-295 = system: SF-295
SN12C = system: SN12C
M14 = system: M14
NCI-H23 = system: NCI-H23
OVCAR-3 = system: OVCAR-3
SR = system: SR
NCI-H522 = system: NCI-H522

Question: What does the source list for `COc1c2ccoc2c(OC)c2oc(=O)ccc12` [ISOPIMPINELLIN]?
Answer: GI50 (A549): > 100 µM (inactive); GI50 (UACC-62): 36.2 µM (inactive); GI50 (BT-549): > 100 µM (inactive); GI50 (SNB-19): > 100 µM (inactive); GI50 (MDA-MB-231): > 100 µM (inactive); GI50 (NCI-H460): > 100 µM (inactive); GI50 (UACC-257): > 100 µM (inactive); GI50 (HCT-15): > 100 µM; GI50 (IGROV-1): > 100 µM (inactive); GI50 (DU-145): > 100 µM (inactive); GI50 (SNB-75): 13.1 µM (inactive); GI50 (OVCAR-5): > 100 µM (inactive); GI50 (SW-620): > 100 µM (inactive); GI50 (SF-295): > 100 µM (inactive); GI50 (SN12C): > 100 µM (inactive); GI50 (M14): > 100 µM (inactive); GI50 (NCI-H23): > 100 µM (inactive); GI50 (OVCAR-3): > 100 µM (inactive); GI50 (SR): > 100 µM (inactive); GI50 (NCI-H522): > 100 µM (inactive)

Question: Which results are given for `Oc1ccc(-c2nc(-c3cccnc3)c(-c3ccc(Cl)cc3)[nH]2)cc1O`?
Answer: GI50 (A549): 20.1 µM (inactive); GI50 (UACC-62): 11.2 µM (inactive); GI50 (BT-549): 10 µM (inactive); GI50 (SNB-19): 13 µM (inactive); GI50 (MDA-MB-231): 17.3 µM (inactive); GI50 (UACC-257): 15.1 µM (inactive); GI50 (HCT-15): 10.3 µM; GI50 (IGROV-1): 4.34 µM (inactive); GI50 (DU-145): 22 µM (inactive); GI50 (SNB-75): 6.05 µM (inactive); GI50 (OVCAR-5): 18.7 µM (inactive); GI50 (SW-620): 12.4 µM (inactive); GI50 (SF-295): 16.2 µM (inactive); GI50 (SN12C): 13.2 µM (inactive); GI50 (M14): 13.6 µM (inactive); GI50 (NCI-H23): 11.7 µM (inactive); GI50 (OVCAR-3): 3.43 µM (inactive); GI50 (SR): > 100 µM (inactive); GI50 (NCI-H522): 1.13 µM (inactive)

Question: `O=C(Cc1ccc(Cl)cc1)Nc1ccc2oc(-c3ccccc3)nc2c1` was tested. Which GI50 (A549) did it give?
Answer: > 100 µM (inactive)

Question: And the GI50 (UACC-62)?
Answer: > 100 µM (inactive)

Question: And the GI50 (BT-549)?
Answer: > 100 µM (inactive)

Question: And the GI50 (SNB-19)?
Answer: 38.9 µM (inactive)

Question: What about the GI50 (MDA-MB-231) of the same compound?
Answer: > 100 µM (inactive)

Question: What about the GI50 (NCI-H460) of the same compound?
Answer: > 100 µM (inactive)

Question: And the GI50 (UACC-257)?
Answer: > 100 µM (inactive)

Question: What about the GI50 (HCT-15) of the same compound?
Answer: > 100 µM

Question: What about the GI50 (IGROV-1) of the same compound?
Answer: > 100 µM (inactive)

Question: What about the GI50 (DU-145) of the same compound?
Answer: > 100 µM (inactive)

Question: What about the GI50 (SNB-75) of the same compound?
Answer: 24.4 µM (inactive)

Question: And the GI50 (OVCAR-5)?
Answer: > 100 µM (inactive)

Question: And the GI50 (SW-620)?
Answer: > 100 µM (inactive)

Question: What about the GI50 (SF-295) of the same compound?
Answer: > 100 µM (inactive)

Question: What about the GI50 (SN12C) of the same compound?
Answer: 84.9 µM (inactive)

Question: What about the GI50 (M14) of the same compound?
Answer: > 100 µM (inactive)

Question: And the GI50 (NCI-H23)?
Answer: > 100 µM (inactive)

Question: What about the GI50 (OVCAR-3) of the same compound?
Answer: > 100 µM (inactive)

Question: And the GI50 (SR)?
Answer: > 100 µM (inactive)

Question: And the GI50 (NCI-H522)?
Answer: > 100 µM (inactive)

Question: How did the GI50 (A549) turn out when `COC(=O)C1=C(OC(=O)c2ccccc2)C(C(=O)OC)[C@@]2(O)[C@@H](C(=O)OC)[C@H](C)C[C@@H]1[C@@H]2C(=O)OC` (stereo partly drawn) was run?
Answer: 19.5 µM (inactive)

Question: What about the GI50 (UACC-62) of the same compound?
Answer: 39.7 µM (inactive)

Question: What about the GI50 (BT-549) of the same compound?
Answer: 23.7 µM (inactive)

Question: And the GI50 (SNB-19)?
Answer: 74.6 µM (inactive)

Question: And the GI50 (MDA-MB-231)?
Answer: 37.7 µM (inactive)

Question: What about the GI50 (NCI-H460) of the same compound?
Answer: 25.3 µM (inactive)

Question: What about the GI50 (UACC-257) of the same compound?
Answer: 33.3 µM (inactive)

Question: And the GI50 (HCT-15)?
Answer: 58.1 µM

Question: And the GI50 (IGROV-1)?
Answer: 33.8 µM (inactive)

Question: And the GI50 (DU-145)?
Answer: 59.3 µM (inactive)

Question: What about the GI50 (SNB-75) of the same compound?
Answer: 22.9 µM (inactive)

Question: What about the GI50 (OVCAR-5) of the same compound?
Answer: 47.2 µM (inactive)

Question: What about the GI50 (SW-620) of the same compound?
Answer: 28.6 µM (inactive)

Question: And the GI50 (SF-295)?
Answer: 35.1 µM (inactive)

Question: And the GI50 (SN12C)?
Answer: 41.8 µM (inactive)

Question: What about the GI50 (M14) of the same compound?
Answer: 28.3 µM (inactive)

Question: And the GI50 (NCI-H23)?
Answer: 30.8 µM (inactive)

Question: And the GI50 (OVCAR-3)?
Answer: 46.2 µM (inactive)

Question: And the GI50 (SR)?
Answer: 21.5 µM (inactive)

Question: And the GI50 (NCI-H522)?
Answer: 13.2 µM (inactive)

Question: Which GI50 (A549) does the source give for `O=Cc1ccc(-c2cc(C=O)c(-c3cccs3)[nH]2)s1` here?
Answer: 24.8 µM (inactive)

Question: What about the GI50 (UACC-62) of the same compound?
Answer: 27.5 µM (inactive)

Question: What about the GI50 (BT-549) of the same compound?
Answer: 28.2 µM (inactive)

Question: What about the GI50 (SNB-19) of the same compound?
Answer: 44.9 µM (inactive)

Question: What about the GI50 (MDA-MB-231) of the same compound?
Answer: 29.6 µM (inactive)

Question: What about the GI50 (NCI-H460) of the same compound?
Answer: 25.8 µM (inactive)

Question: And the GI50 (UACC-257)?
Answer: 48 µM (inactive)

Question: And the GI50 (HCT-15)?
Answer: 24.8 µM

Question: And the GI50 (IGROV-1)?
Answer: 15.7 µM (inactive)

Question: What about the GI50 (DU-145) of the same compound?
Answer: 42.6 µM (inactive)

Question: And the GI50 (SNB-75)?
Answer: 17.1 µM (inactive)

Question: What about the GI50 (OVCAR-5) of the same compound?
Answer: > 75 µM (inactive)

Question: What about the GI50 (SW-620) of the same compound?
Answer: > 75 µM (inactive)

Question: What about the GI50 (SF-295) of the same compound?
Answer: 21.8 µM (inactive)

Question: And the GI50 (SN12C)?
Answer: 53.6 µM (inactive)

Question: What about the GI50 (M14) of the same compound?
Answer: 24 µM (inactive)

Question: And the GI50 (NCI-H23)?
Answer: 37 µM (inactive)

Question: What about the GI50 (OVCAR-3) of the same compound?
Answer: 18.5 µM (inactive)

Question: And the GI50 (SR)?
Answer: 4.05 µM (inactive)

Question: What about the GI50 (NCI-H522) of the same compound?
Answer: 10.3 µM (inactive)

Question: Which results are given for `O=C(NCCNCCO)N/N=C/c1ccc([N+](=O)[O-])cc1`?
Answer: GI50 (A549): > 100 µM (inactive); GI50 (UACC-62): > 100 µM (inactive); GI50 (BT-549): > 100 µM (inactive); GI50 (SNB-19): > 100 µM (inactive); GI50 (MDA-MB-231): > 100 µM (inactive); GI50 (NCI-H460): > 100 µM (inactive); GI50 (UACC-257): > 100 µM (inactive); GI50 (HCT-15): > 100 µM; GI50 (IGROV-1): > 100 µM (inactive); GI50 (DU-145): > 100 µM (inactive); GI50 (SNB-75): 21.7 µM (inactive); GI50 (OVCAR-5): > 100 µM (inactive); GI50 (SW-620): > 100 µM (inactive); GI50 (SF-295): > 100 µM (inactive); GI50 (SN12C): > 100 µM (inactive); GI50 (M14): > 100 µM (inactive); GI50 (NCI-H23): > 100 µM (inactive); GI50 (OVCAR-3): > 100 µM (inactive); GI50 (SR): > 100 µM (inactive); GI50 (NCI-H522): > 100 µM (inactive)

Question: How did the GI50 (A549) turn out when `O=C1c2scc(-c3ccc(F)cc3)c2-n2cccc21` was run?
Answer: 56.5 µM (inactive)

Question: What about the GI50 (UACC-62) of the same compound?
Answer: 18.6 µM (inactive)

Question: And the GI50 (BT-549)?
Answer: 13.6 µM (inactive)

Question: And the GI50 (SNB-19)?
Answer: 19.8 µM (inactive)

Question: What about the GI50 (MDA-MB-231) of the same compound?
Answer: 24.7 µM (inactive)

Question: And the GI50 (NCI-H460)?
Answer: 28 µM (inactive)

Question: What about the GI50 (UACC-257) of the same compound?
Answer: 71 µM (inactive)

Question: And the GI50 (HCT-15)?
Answer: 32.1 µM

Question: And the GI50 (IGROV-1)?
Answer: 18.3 µM (inactive)

Question: What about the GI50 (DU-145) of the same compound?
Answer: 88.1 µM (inactive)

Question: What about the GI50 (SNB-75) of the same compound?
Answer: 6.4 µM (inactive)

Question: And the GI50 (OVCAR-5)?
Answer: > 100 µM (inactive)

Question: And the GI50 (SW-620)?
Answer: 27.4 µM (inactive)

Question: What about the GI50 (SF-295) of the same compound?
Answer: 26.2 µM (inactive)

Question: What about the GI50 (SN12C) of the same compound?
Answer: 20.6 µM (inactive)

Question: What about the GI50 (M14) of the same compound?
Answer: 29.5 µM (inactive)

Question: What about the GI50 (OVCAR-3) of the same compound?
Answer: 54.1 µM (inactive)

Question: What about the GI50 (SR) of the same compound?
Answer: 11 µM (inactive)

Question: And the GI50 (NCI-H522)?
Answer: 17.3 µM (inactive)
